Measured values reported in patent publication US7906486B2, “Method of treating or preventing tissue deterioration, injury or damage due to disease of mucosa” (SciClone Pharmaceuticals, Inc., priority 2007, dated 2011).

Tested on: oral mucositis induced by fractionated radiation (eight doses of 7.5 Gy, left buccal cheek pouch)
Experiment: Oral mucositis induced by fractionated radiation in hamsters, mucositis scoring (Example 3, SCI-03)
Assay type: in vivo, Syrian Golden Hamsters
Parameters: key: 0: Pouch completely healthy. No erythema or vasodilation.; 1: Light to severe erythema and vasodilation. No erosion of mucosa.; 2: Severe erythema and vasodilation. Erosion of superficial aspects of mucosa leaving denuded areas, but no frank ulceration. Decreased stippling of mucosa.; 3: Formation of off-white ulcers in one or more places. Ulcers may have a yellow/gray due to pseudomembrane. Cumulative size of ulcers should equal about ¼ of the pouch. Severe erythema and vasodilation.; 4: Cumulative seize of ulcers should equal about ½ of the pouch. Loss of pliability. Severe erythema and vasodilation.; 5: Virtually all of pouch is ulcerated. Loss of pliability (pouch can only partially be extracted from mouth)
From the text: The fractionated radiation model in hamsters, developed by the Principal Investigator, has proven to be an accurate, efficient and cost-effective technique to provide a preliminary evaluation of anti-mucositis compounds. In this model, hamsters receive 8 doses of 7.5 Gy to the left cheek pouch on days 0, 1, 2, 3, […], rather than the single dose of 40 Gy on day 0 that is used in acute radiation studies. The rationale for using this scheduling for the radiation is that it more closely resembles the clinical courses of radiotherapy given to cancer patients. The course of mucositis in this model is well defined and results in peak mucositis scores approximately 14-16 days following radiation. Mortality (generally from the side effects of anesthesia) in the fractionated radiation model is slightly higher than that seen in the acute radiation model and group sizes are increased (to 10 per group) to allow for this.
(§1) Forty (40) male Syrian Golden Hamsters were given eight doses of radiation of 7.5 Gy each directed to their left buccal cheek pouch on days 0, 1, 2, 3, 6, 7, 8 and 9. This was accomplished by anesthetizing the animals and everting the left buccal pouch, while protecting the rest of the animal's bodies with a lead shield. Test materials were given by sub-cutaneous injection once daily as detailed in Table 9. Mucositis was evaluated clinically starting on day 7, and continuing on alternate days until day 35. Test articles were given as outlined Table 9, Groups 1 and 2 were dosed from Day −1 to Day 29, Group 3 was dosed on the days of radiation only, Group 4 was dosed on the days between Day −15 and Day 29 on which no radiation is given (Day −1, Day 4, Day 5 and Day 10 to Day 29).
The effect on mucositis of each drug treatment compared to placebo was assessed according to the following parameters:
On each evaluation day, the number of animals with a blinded mucositis score of ≧3 in each drug treatment group was compared to the control group. Differences were compared on a cumulative basis and statistical significance was determined by chi-square analysis. Efficacy, in this analysis, is defined by a significant reduction in the number of days that a group of animals had ulcerations (scores ≧3) when compared to the control group.
For each evaluation day the scores of the control group were compared to those of the treated groups using non-parametric rank sum analysis. Treatment success was considered as a statistically significant lowering of scores in the treated group on 2 or more days from day 6 to day 28.
as §1, with “daily at 8:00 am” for “daily”, “9. […]” for “9. Mucositis was evaluated clinically starting on day 7, and continuing on alternate days until day 35.”, “2 was” for “2 were”, “radiation only (days 0-3 and days 6-10),” for “radiation only,”, “Day −1” for “Day −15”, “Day 4 to” for “Day 4,”
Radiation was generated with a Philips 160 kVp (kilovolt potential) (18.75-ma) X-ray source at a focal distance of 30 cm, with a 3.0 mm hardened Al filtration system. Irradiation was targeted to the left buccal pouch mucosa at a rate of 3.32 Gy/minute. […] Using this calibration, the energy received by each animal at each radiation dose was approximately 64.5 nC (nanoCoulombs) at each time point. Prior to irradiation, animals were anesthetized with an intraperitoneal injection of ketamine (160 mg/kg) and xylazine (8 mg/kg). The left buccal pouch was everted, fixed and isolated using a lead shield.
The mucositis score, weight change and survival were measured throughout the study as described above. […]

Measured: Mucositis score

N[C@H](CCC(=O)N[C@@H](Cc1c[nH]c2ccccc12)C(=O)O)C(=O)O [SCV-07, γ-D-glutamyl-L-tryptophan]
2: Group 2, day 13, individual animals (two score lines each) | Group 2, day 23, individual animals (two score lines each) | Group 2, day 25, individual animals (two score lines each) | Group 2, day 27, individual animals (two score lines each) | Group 2, day 31, individual animals (two score lines each) | Group 2, day 33, individual animals (two score lines each)
